# Data: patent publication US6767906B2, “2-amino-6-anilino-purines and their use as medicaments” (Novartis AG, priority 1999, dated 2004)
row,melting point,SMILES
1,231 to 232 °C,"CCn1cnc2c(Nc3cccc(NC(=O)C#Cc4cc(C)ccc4C)c3)nc(N[C@H]3CC[C@H](O)CC3)nc21 [Example 109, N-{3-[9-Ethyl-2-(trans-4-hydroxy-cyclo-hexylamino)-9H-purin-6-yl-amino]-phenyl)-3-(2,5-dimethyl-phenyl)-propargylic acid amide]"
2,142 to 144 °C,"CCn1cnc2c(Nc3cccc(NC(=O)C#Cc4ccc(OC)cc4)c3)nc(N[C@H]3CC[C@H](O)CC3)nc21 [Example 95, N-{3-[9-Ethyl-2-(trans-4-hydroxy-cyclo-hexylamino)-9H-purin-6-yl-amino]-phenyl}-3-(4-methoxyphenyl)-propargylic acid amide]"
3,140 to 143 °C,"CCn1cnc2c(Nc3cccc(NS(=O)(=O)c4ccc(OC)cc4)c3)nc(N[C@H]3CC[C@H](O)CC3)nc21 [Example 82, N-{3-[9-Ethyl-2-(trans-4-hydroxy-cyclo-hexylamino)-9H-purin-6-yl-amino]-phenyl}-4-methoxy-benzenesulfonamide]"
4,167 to 177 °C,"CCn1cnc2c(Nc3cccc(NC(=O)C#Cc4nccc(C)n4)c3)nc(NC3CCC(O)CC3)nc21 (centres unmarked) [Example 106, 3-(4-Methyl-pyrimidin-2-yl)-propynoic acid {3-[9-ethyl-2-(4-hydroxy-cyclohexylamino)-9H-purin-6-ylamino]-phenyl}-amide]"
5,131 to 135 °C,"CCn1cnc2c(Nc3ccc(NC(=O)OC)cc3)nc(N[C@H]3CC[C@H](O)CC3)nc21 [Example 83, {4-(9-Ethyl-2-(trans-4-hydroxy-cyclo-hexylamino)-9H-purin-6-yl-amino]-phenyl)-carbamic acid methyl ester]"
6,150 °C,"CCn1cnc2c(Nc3cccc(NC(=O)C#CCN4CCCCC4)c3)nc(NC3CCC(O)CC3)nc21 (centres unmarked) [Example 111, 4-Piperidin-1-yl-but-2-ynoic acid {3-[9-ethyl-2-(4-hydroxy-cyclohexyl-amino)-9H-purin-6-ylamino]-phenyl}-amide]"
7,152 to 154 °C,"Cc1ccc(C#CC(=O)Nc2cccc(Nc3nc(NC4CCC(O)CC4)nc4c3ncn4C(C)C)c2)cc1 (centres unmarked) [Example 97, 3-p-Tolyl-propynoic acid {3-[2-(4-hydroxy-cyclohexylamino)-9-isopropyl-9H-purin-6-ylamino]-phenyl}-amide]"
8,122 to 125 °C,"CCn1cnc2c(Nc3cccc(NC(=O)OCC(C)C)c3)nc(N[C@H]3CC[C@H](O)CC3)nc21 [Example 87, {3-[9-Ethyl-2-(trans-4-hydroxy-cyclo-hexylamino)-9H-purin-6-yl-amino]-phenyl}-carbamic acid isobutyl ester]"
9,156 to 158 °C,"CC(C)n1cnc2c(Nc3cccc(NC(=O)C#Cc4ccc(Cl)cc4)c3)nc(NC3CCC(O)CC3)nc21 (centres unmarked) [Example 96, 3-(4-Chloro-phenyl)-propynoic acid {3-[2-(4-hydroxy-cyclohexylamino)-9-isopropyl-9H-purin-6-ylamino]-phenyl}-amide]"
10,144 to 146 °C,"CCn1cnc2c(Nc3cccc(NC(=O)C#Cc4ccc(F)cc4)c3)nc(N[C@H]3CC[C@H](O)CC3)nc21 [Example 93, N-{3-[9-Ethyl-2-(trans-4-hydroxy-cyclo-hexylamino)-9H-purin-6-yl-amino]-phenyl}-3-(4-fluorophenyl)-propargylic acid amide]"
11,131 to 134 °C,CCn1cnc2c(Nc3cccc(NC(=O)Oc4ccccc4)c3)nc(N[C@H]3CC[C@H](O)CC3)nc21
12,164 to 171 °C,"CCn1cnc2c(Nc3cccc(NC(=O)C#Cc4cccc(C)c4)c3)nc(NC3CCC(O)CC3)nc21 (centres unmarked) [Example 102, 3-m-Tolyl-propynoic acid {3-[9-ethyl-2-(4-hydroxy-cyclohexylamino)-9H-purin-6-ylamino]-phenyl}-amide]"
13,135 to 139 °C,CCn1cnc2c(Nc3ccc(NC(=O)Oc4ccccc4)cc3)nc(N[C@H]3CC[C@H](O)CC3)nc21
14,165 to 167 °C,"CCn1cnc2c(Nc3cccc(C(=O)NCc4ccc(F)cc4)c3)nc(N[C@H]3CC[C@H](O)CC3)nc21 [Example 73, 3-[9-ethyl-2-(trans-4-hydroxy-cyclohexylamino)-9H-purin-6-yl-amino]-N-(4-fluoro-benzyl)-benzamide]"
15,162 to 164 °C,"CC(C)n1cnc2c(Nc3cccc(NC(=O)C#Cc4ccccc4)c3)nc(NC3CCC(O)CC3)nc21 (centres unmarked) [Example 100, 3-(Phenyl)-propynoic acid {3-[2-(4-hydroxy-cyclohexylamino)-9-isopropyl-9H-purin-6-ylamino]-phenyl}-amide]"
16,145 to 147 °C,"CC(C)n1cnc2c(Nc3cccc(NC(=O)C#Cc4ccc(F)cc4)c3)nc(NC3CCC(O)CC3)nc21 (centres unmarked) [Example 99, 3-(4-Fluoro-phenyl)-propynoic acid {3-[2-(4-hydroxy-cyclohexylamino)-9-isopropyl-9H-purin-6-ylamino]-phenyl}-amide]"

row,melting point,SMILES
1,156 to 168 °C,"CCn1cnc2c(Nc3cccc(NC(=O)C#Cc4cccc(C(F)(F)F)c4)c3)nc(NC3CCC(O)CC3)nc21 (centres unmarked) [Example 103, 3-(3-Trifluoromethyl-phenyl)-propynoic acid {3-[9-ethyl-2-(4-hydroxy-cyclohexylamino)-9H-purin 6-ylamino]-phenyl}-amide]"
2,226 to 228 °C,"CC(C)n1cnc2c(Nc3cccc(NC(=O)c4ccc(-c5ccccc5)cc4)c3)nc(NC3CCC(O)CC3)nc21 (centres unmarked) [Example 101, Biphenyl-4-carboxylic acid {3-[2-(4-hydroxy-cyclohexylamino)-9-isopropyl-9H-purin-6-ylamino]-phenyl]-amide]"
3,157 to 158 °C,"CCn1cnc2c(Nc3cccc(C(=O)NCc4ccc(OC)cc4)c3)nc(N[C@H]3CC[C@H](O)CC3)nc21 [Example 75, 3-[9-ethyl-2-(trans-4-hydroxy-cyclohexylamino)-9H-purin-6-yl-amino]-N-(4-methoxy-benzyl)-benzamide]"
4,265 to 267 °C,"CCn1cnc2c(Nc3cccc(NS(C)(=O)=O)c3)nc(N[C@H]3CC[C@H](O)CC3)nc21 [Example 80, N-{3-[9-Ethyl-2-(trans-4-hydroxy-cyclo-hexylamino)-9H-purin-6-yl-amino]-phenyl} methanesulfonamide]"
5,246 to 248 °C,"COc1ccc(C#CC(=O)Nc2cccc(Nc3nc(NC4CCC(O)CC4)nc4c3ncn4C(C)C)c2)cc1 (centres unmarked) [Example 98, 3-(4-Methoxy-phenyl)-propynoic acid {3-[2-(4-hydroxy-cyclohexyl-amino)-9-isopropyl-9H-purin-6-ylamino]-phenyl)-amide]"
6,220 °C,"CCCCc1ccc(N(c2nc(N[C@H]3CCCC[C@H]3C(N)=O)nc3c2ncn3CC)S(N)(=O)=O)cc1 (relative stereo) [Example 1, cis-2-[6-(4-butyl-aminosulfonyl-phenylamino)-9-ethyl-9H-purin-2-yl-amino]-cyclohexanecarboxylic acid amide]"
7,149 to 156 °C,"CCn1cnc2c(Nc3cccc(NC(=O)C#Cc4cccc(C)n4)c3)nc(NC3CCC(O)CC3)nc21 (centres unmarked) [Example 105, 3-(6-Methyl-pyridin-2-yl)-propynoic acid {3-[9-ethyl-2-(4-hydroxy-cyclohexylamino)-9H-purin-6-ylamino]-phenyl}-amide]"
8,215 °C,"CCn1cnc2c(Nc3cccc(C(=O)NCc4ccccc4)c3)nc(N[C@H]3CC[C@H](O)CC3)nc21 [Example 72, N-benzyl-3-[9-ethyl-2-(trans-4-hydroxy-cyclohexylamino)-9H-purin-6-yl-amino]-benzamide]"
9,130 to 134 °C,"CCn1cnc2c(Nc3cccc(C(=O)NCc4ccc(C)cc4)c3)nc(N[C@H]3CC[C@H](O)CC3)nc21 [Example 74, 3-[9-ethyl-2-(trans-4-hydroxy-cyclohexylamino)-9H-purin-6-yl-amino]-N-(4-methyl-benzyl)-benzamide]"
10,129 to 137 °C,"CCn1cnc2c(Nc3cccc(C(=O)NCc4ccc(C(F)(F)F)cc4)c3)nc(N[C@H]3CC[C@H](O)CC3)nc21 [Example 76, 3-[9-ethyl-2-(trans-4-hydroxy-cyclohexylamino)-9H-purin-6-yl-amino]-N-(4-trifluoromethyl-benzyl)-benzamide]"
11,234 to 236 °C,"CCn1cnc2c(Nc3cccc(NC(=O)C#Cc4c(Cl)cccc4Cl)c3)nc(N[C@H]3CC[C@H](O)CC3)nc21 [Example 107, N-{3-[9-Ethyl-2-(trans-4-hydroxy-cyclo-hexylamino)-9H-purin-6-yl-amino]-phenyl}-3-(2,6-dichlorophenyl)-propargylic acid amide]"
12,148 to 150 °C,"CCn1cnc2c(Nc3cccc(NC(=O)C#Cc4ccc(Cl)cc4)c3)nc(N[C@H]3CC[C@H](O)CC3)nc21 [Example 92, N-{3-[9-Ethyl-2-(trans-4-hydroxy-cyclo-hexylamino)-9H-purin-6-yl-amino]-phenyl}-3-(4-chlorophenyl)-propargylic acid amide]"
13,121 to 125 °C,"CCn1cnc2c(Nc3ccc(NC(=O)OCC(C)C)cc3)nc(N[C@H]3CC[C@H](O)CC3)nc21 [Example 84, {4-[9-Ethyl-2-(trans-4-hydroxy-cyclo-hexylamino)-9H-purin-6-yl-amino]-phenyl}-carbamic acid isobutyl ester]"
14,115 to 122 °C,"CCn1cnc2c(Nc3cccc(NC(=O)C#CCN4CCN(C)CC4)c3)nc(NC3CCC(O)CC3)nc21 (centres unmarked) [Example 112, 4-(4-Methyl-piperazin-1-yl)-but-2-ynoic acid {3-[9-ethyl-2-(4-hydroxy-cyclohexylamino)-9H-purin-6-ylamino]-phenyl)-amide]"
15,146 to 148 °C,"CCn1cnc2c(Nc3cccc(NC(=O)C#Cc4ccc(C)c(C)c4)c3)nc(N[C@H]3CC[C@H](O)CC3)nc21 [Example 110, N-(3-[9-Ethyl-2-(trans-4-hydroxy-cyclo-hexylamino)-9H-purin-6-yl-amino]-phenyl}-3-(3,4-dimethyl-phenyl)-propargylic acid amide]"
16,158 to 161 °C,"CCn1cnc2c(Nc3cccc(NC(=O)C#Cc4cccs4)c3)nc(N[C@H]3CC[C@H](O)CC3)nc21 [Example 108, N-{3-[9-Ethyl-2-(trans-4-hydroxy-cyclo-hexylamino)-9H-purin-6-yl-amino]-phenyl}-3-(2-thiophenyl)-propargylic acid amide]"
